Laboratory results reported in patent publication US8216777B2, “Compositions and methods for the treatment or prevention of chemoresistant neoplasia” (The Johns Hopkins University, priority 2006, dated 2012).

Key:
[1] = tested on: Renca renal carcinoma cells; assay: cells; format: cell-based
Description: The effect of Nrf2 siRNA on the killing of Renca renal carcinoma cells was examined using etoposide, another widely used anticancer drug. To generate stable Renca cell lines that over-expressed Nrf2 siRNA and non-specific scramble siRNA (SC siRNA), the siRNA sequence was converted into short hairpin RNA (shRNA) and cloned in to a BLOCK-IT U6 RNAi Entry Vector (Invitrogen). The shRNA construct was packaged into a lentiviral vector, and transduced into Renca cell lines. Recombinants were selected with antibiotic. Renca cells stably expressing Nrf2 siRNA and non-specific LacZ siRNA were screened, and two clones expressing Nrf2 siRNA showing maximum knockdown of Nrf2 message were selected for further characterization. A cell viability assay was performed using these clones using etoposide as the chemotherapeutic drug. […] Cell viability was measured using the MTT [3-(4,5-dimethylthiazol-2-yl)-2,5-diphenyltetrazolium bromide] assay after 48 hours. Briefly, cells were transfected with 50 nM siRNAs two times within a 48 h interval and, 24 hours after the second transfection, cells were plated at a density of 7,500 cells/well in 180 μl of growth media in 96-well plates. […] After 96 h, drug cytotoxicity was evaluated by using a 3-(4,5-dimethylthiazol-2-yl)-2,5-diphenyl tetrazolium bromide (MTT; Sigma) reduction conversion assay. […]

Nrf2 = assay: ARE-luciferase transcriptional reporter assay; format: cell-based, mice; conditions: Hepa cells stably transfected with pARE-luc; 5, 10, 50 μM
Experimental: In this example, a high throughput approach to screen different chemicals for their potency to inhibit Nrf2 activation is described. A cell based transcriptional reporter assay approach was used for the identification of agents that inhibit Nrf2 mediated transcription. Hepa cells, which are mice liver carcinoma cells, were stably transfected with the ARE-luciferase reporter vector, and plated on to 96 or […] well plates. After overnight incubation, the cells were pretreated for 1-3 hours with different compounds, and challenged with a known Nrf2 activator, sulforaphane and dibenzoylmethane (DBM). Luciferase activity was measured after 6 hours following the last treatment using a commercially available system.

Nrf2 mRNA = assay: Nrf2 transcript degradation after siRNA transfection, real time TAQMAN PCR; format: cell-based, human; conditions: A549; for relative potency among the Nrf2 siRNA duplexes: Nrf2 transcript, 24 and 48 hours
Experimental: To study the degradation of Nrf2 mRNA with siRNA in a time dependent manner, a pooled mixture of the generated duplexes were transfected into A549 human non-small cell lung carcinoma cell line. As a control, a non-specific scrambled siRNA duplex (SC) was used. Transfection vehicle alone was also used as control. Total RNA was isolated after 24, 48 and 72 hours. The amount of Nrf2 transcript was measured using real time TAQMAN PCR. […] These five ND duplexes were again screened using the same assay to measure amount of Nrf2 transcript as described above.
Total RNA was extracted from lung tissues and or cells using RNeasy kit (Qiagen, Valencia Calif.) and was quantified by UV absorbance spectrophotometry. The reverse transcription reaction was performed by using the Superscript First Strand Synthesis system (Invitrogen, Carlsbad Calif.) in a final volume of 20 μl containing 2 μg of total RNA, 100 ng of random hexamers, 1× reverse transcription buffer, 2.5 mM MgCl2, 1 mM dNTP, 10 units of RNaseOUT, 20 units of Superscript reverse transcriptase, and DEPC-treated water. Quantitative real time RT-PCR analyses of Human KEAP1, NRF2, GCLc, GCLm, GSR, PRDX1, GSTA3, GSTA2, NQO1, MRP1 and MRP2 were performed by using assay on demand primers and probe sets from Applied Biosystems. Assays were performed by using the ABI 7000 Taqman system (Applied Biosystems, Foster City Calif.). β-ACTIN was used for normalization.
The siRNA sequence targeting NRF2 corresponds to the coding region 1903-1921 nt (5′-[…]-3′; SEQ ID NO:27) in the NRF2 cDNA. The NRF2 siRNA duplex with the following sense and antisense sequences was used: 5′-GUAAGAAGCCAGAUGUUAAdUdU (sense; SEQ ID NO:50) and dUd[…]-5′ (antisense; SEQ ID NO:28). To confirm the specificity of the inhibition, the siCONTROL non-targeting siRNA 1 (NS siRNA; 5′[…] 3′; SEQ ID NO:29) with microarray-defined signature was used as a negative control. All of the siRNA duplexes were synthesized by Dharmacon Research, Inc. (Lafayette). Cells in the exponential growth phase were plated at a density of 0.2×10^6 cells/ml, grown for 12 h, and transfected twice at an interval of 48 h with 50 nM siRNA duplexes using Lipofectamine 2000 and OPTI-MEMI reduced serum medium (Invitrogen, Carlsbad Calif.) according to the manufacturer's recommendations. Concentrations of siRNAs were chosen on the basis of dose-response studies.

Compound: COc1cc([C@@H]2c3cc4c(cc3[C@@H](O[C@@H]3O[C@@H]5CO[C@@H](C)O[C@H]5[C@H](O)[C@H]3O)[C@H]3COC(=O)[C@H]23)OCO4)cc(OC)c1O [Etoposide, etoposide]
- viability at 250 µM ([1]; Renca, read-out: viable cells): ~100%
- viability ([1]; mouse, 48 h, 250 μM): −60%

Compound: O=C(CC(=O)c1ccccc1)c1ccccc1 [dibenzoylmethane]
- luciferase activity (Nrf2): increase in luciferase activity

Compound: C[S+]([O-])CCCCN=C=S (stereo not drawn) [sulforaphane]
- luciferase activity (Nrf2): increase in luciferase activity

Compound: ND1: siRNA duplex, Nrf2 mRNA (NM_006164) position 1686-1704; sense SEQ ID NO: 1 CUAGAGCAAGAUUUAGAUCUU, antisense SEQ ID NO: 5 (antisense GAUCUAAAUCUUGCUCUAGUU; listed as RNA, chemistry not given here)
- relative potency among the Nrf2 siRNA duplexes (Nrf2 mRNA): most potent

Compound: ND3: siRNA duplex, Nrf2 mRNA position 1903-1921; sense SEQ ID NO: 2 GUAAGAAGCCAGAUGUUAAUU, antisense SEQ ID NO: 6 (antisense UUAACAUCUGGCUUCUUACUU; listed as RNA, chemistry not given here)
- relative potency among the Nrf2 siRNA duplexes (Nrf2 mRNA): most potent
- degradation of Nrf2 message (Nrf2 mRNA; after 24 and 48 hours, individual duplexes): maximum message degradation

Compound: ND4: siRNA duplex, Nrf2 mRNA position 1563-1581; sense SEQ ID NO: 3 AUGAUGUCCAAAGAGCAGUUU, antisense SEQ ID NO: 7 (antisense ACUGCUCUUUGGACAUCAUUU; listed as RNA, chemistry not given here)
- relative potency among the Nrf2 siRNA duplexes (Nrf2 mRNA): most potent

Compound: ND5: siRNA duplex, Nrf2 mRNA position 1485-1463; antisense SEQ ID NO: 4 UUCAUCUCUUGUGAGAUGAGCCUCC, sense SEQ ID NO: 8 (sense GGAGGCUCAUCUCACAGAGAUGAA; listed as RNA, chemistry not given here)
- relative potency among the Nrf2 siRNA duplexes (Nrf2 mRNA): most potent
